Laboratory results from US7939567B2, “Dextromethorphan-based method for treating acne” (Blue Blood Biotech Corp., priority 2006, dated 2011).

What was measured:
Bacteroides fragilis = test: MIC test of B. fragilis (thioglycollate broth); type: cell-based; parameters: key: +: Growth Inhibition; —: No Growth Inhibition; settings: anaerobic, 24 h
Experimental: Bacteroides fragilis growing in 18-24 hours in the anaerobic thioglycollate broth was used to formulate the suspension of bacteria cells of McFarland 0.5. Diluted 0.5 g/ml DMSO stock solution with anaerobic Thioglycollate broth. Added 1000 μl anaerobic Thioglycollate broth into 1000 μl of DM diluent with 1:1 ratio, and then put into the anaerobic incubator to incubate for 24 h.

TNF-a = settings: LPS-induced endotoxemia in rodents; mitigation of circulatory failure and mortality; cited from earlier work
Staphylococcus aureaus = test: DM disc diffusion on S. aureus lawn; type: cell-based; settings: S. aueaus lawn, 37° C., 96 hours
Experimental: Based for antimicrobial disk diffusion Susceptibility Testing is Mueller Hinton II agar obtained from Becton, Dickinson and Company, France.
Prepared Mueller-Hinton-II-agar by suspending 38 g of the powder in 1L of double-distilled water. Autoclaved the agar at 121° C. for 15 min. The agar was poured into each agar plate and waited for solidifying. S. aureaus of 10^5 CFU in 100 μl medium were spread on the agar plate and were grown for 96 hours.

E. coli = test: DM disc diffusion on E. coli lawn; type: cell-based; settings: 37° C., 96 hours
Experimental: Base for antimicrobial disk diffusion Susceptibility Testing is made of Mueller Hinton II agar obtained from Becton, Dickinson and Company, France.
Prepared Mueller-Hinton-II-agar by suspending 38 g of the powder in 1L of double-distilled water. Autoclaved the agar at 121° C. for 15 min. t The agar was poured into each agar plate and waited for solidifying. E. coli of 1×10^5 CFU in 100 μl medium was spread on to the agar plate and were grown for 96 hours.

TNF-α = test: LPS-induced macrophage release of TNF-α (THP-1, ELISA); type: cell-based, human; settings: for concentration of TNF-α in the medium of THP-1 cells after LPS stimulation: pretreated 1 hour, various concentrations, then LPS 24 hours
Experimental: (§1) The monocytic THP-1 cells were cultured and differentiated into macrophages. The macrophages were pretreated with various concentrations of Dextromethophan or naloxone for 1 hour and subsequently incubated with lipopolysaccharide (LPS) for 24 hours.
(§2) RPMI 1640 medium, phorbol 12-myristate-13-acetate (PMA), LPS (Escherichia coli 0111:B4) and naloxone were purchased from Sigma. The human THP-1 monocytic cell line was purchased from Food Industry Research and Development Institute, Hsin Chu, Taiwan. Levels of tumor necrosis factor-α (TNF-α), interleukin-6 (IL-6) and monocyte chemoattractant protein-1 (MCP-1) in medium were determined with monoclonal antibody based ELISA kits purchased from R&D Systems (Minneapolis, Minn., USA), and all animal experiments were approved by the Institutional Animal Care and Use Committee.
The THP-1 cells were grown in RPMI-1640 medium containing 10% fetal bovine serum at 37° C. in 5% CO2. The cells were differentiated to macrophages after treatment with 100 nM PMA to the culture for 24 hours. The cell suspension (5×10^5) was added in 0.5 mL into each well of the tissue culture plates. LPS was dissolved in sterile water and stored at −70[…] in aliquots. In treatment group, the THP-1 cell culture was pretreated for 1 hour with various concentrations of dextromethorphan or naloxone and followed by treatment with 10 μg/mL LPS for up to 24 hours. […] The levels of TNF-α, IL-6 and MCP-1 in the supernatants were determined using ELISA kits.
The inflammatory reaction can be inhibited by dextromethorphan at less than 0.01 μM. The THP-1 cell treated with LPS at 1 Unit/ml in the presence of dextromethorphan for 24 hrs and the TNF-α and IL-6 released in the culture medium was measured with ELISA (FIG. 1). […] The results are expressed as mean±SD of 3 experiments. ** p<0.01 and *** p<0.001 are compared with the LPS-treated cultures.
(§3) Effect of naloxone treatment on the LPS-induced macrophage release of TNF-α (A), IL-6 (B) and MCP-1 (C). […] The results are expressed as mean±SD of 3 experiments. * p<0.05; ** p<0.01; *** p<0.001 compared with the LPS-treated cultures (FIG. 2).

P. acnes = test: DM disc diffusion on P. acnes lawn; type: cell-based, Propionibacterium acnes; settings: 37° C., 96 hours
Experimental: Spread 0.1 ml medium including bacteria cells which OD595 value was about 0.1×10^6 CFU/ml onto RCM agar plate. Pasted 0.8 cm filter paper and dropped 20 μl of DM into it. Bacteria were cultured under anaerobic at 37° C. for 96 hours and the size of the antibiotic circle was measured.

[1] = humans, oral dosage form, either alone or with quinidine; cited from earlier work
Propionibacterium acnes = test: MIC test of P. acnes (broth dilution, OD595); type: cell-based; parameters: key: +: Growth Inhibition; —: No Growth Inhibition; settings: anaerobic, 37° C., 96 hours
Experimental: Prepared DM stock solution in 500,000 ppm (50%). Added 0.25 g DM into […] DMSO and stirred until mixed well. Then serial diluted 500,000 ppm DM. Centrifuged 5 ml Propionibacterium acnes in RCM (Reinforced Clostridial Medium) culture. Adjusted concentration of bacteria cell in medium by 20 times dilution about OD595=0.1×10^6 CFU/ml. Dispersed 200 μl bacteria cell in medium in aliquot to each 96-well plate. Mixed medium including bacteria cell and 2 μl DM, triplicate tests at each concentration. Bacteria cultured under anaerobic at 37° C. for 96 hours and measured the value at OD595. MIC meant the lowest concentration of anti-bacterial agent that sufficient to suppress the growth of bacteria (e.g. growth inhibition).

MCP-1 = test: LPS-induced macrophage release of MCP-1 (THP-1, ELISA); type: cell-based, human; settings: pretreated 1 hour, various concentrations, then LPS 24 hours
Experimental: as §1, §2
The THP-1 cells were grown in RPMI-1640 medium containing 10% fetal bovine serum at 37° C. in 5% CO2. The cells were differentiated to macrophages after treatment with 100 nM PMA to the culture for 24 hours. […] The levels of TNF-α, IL-6 and MCP-1 in the supernatants were determined using ELISA kits.
as §3

IL-6 = test: LPS-induced macrophage release of IL-6 (THP-1, ELISA); type: cell-based, human; settings: pretreated 1 hour, various concentrations, then LPS 24 hours
Experimental: as §1, §2
The THP-1 cells were grown in RPMI-1640 medium containing 10% fetal bovine serum at 37° C. in 5% CO2. […] The levels of TNF-α, IL-6 and MCP-1 in the supernatants were determined using ELISA kits.
The inflammatory reaction can be inhibited by dextromethorphan at less than 0.01 μM. The THP-1 cell treated with LPS at 1 Unit/ml in the presence of dextromethorphan for 24 hrs and the TNF-α and IL-6 released in the culture medium was measured with ELISA (FIG. 1). […] The results are expressed as mean±SD of 3 experiments. ** p<0.01 and *** p<0.001 are compared with the LPS-treated cultures. […]

## COc1ccc2c(c1)[C@]13CCCC[C@@H]1[C@H](C2)N(C)CC3 [DM, (+)-3-methoxy-17-methyl-9a,13a,14a-morphinan]
Bacteroides fragilis; DM 500 ppm (0.05%)
  Growth Inhibition: —
Bacteroides fragilis; DM 1000 ppm (0.1%)
  Growth Inhibition: —
Bacteroides fragilis; DM 1250 ppm (0.125%)
  Growth Inhibition: +
Bacteroides fragilis; DM 2500 ppm (0.25%)
  Growth Inhibition: +
Bacteroides fragilis; DM 5000 ppm (0.5%)
  Growth Inhibition: +
TNF-a
  effect on TNF-a, NO and superoxide anion: inhibits
Staphylococcus aureaus; 5% DM
  Diameter of clear zone: 10 mm
Staphylococcus aureaus; 10% DM
  Diameter of clear zone: 14 mm
E. coli; 2.5% DM
  Diameter of clear zone: 9.5 mm
E. coli; 5% DM
  Diameter of clear zone: 13 mm
E. coli; 10% DM
  Diameter of clear zone: 18 mm
TNF-α; THP-1 cell treated with LPS for 24 hrs, TNF-α and IL-6 released in medium measured with ELISA
  concentration at which the inflammatory reaction can be inhibited: less than 0.01 μM
TNF-α
  concentration of TNF-α in the medium of THP-1 cells after LPS stimulation: significantly reduced
P. acnes; 2.5% DM, Disc No. 6, anaerobic
  Diameter of clear zone: 12 mm
P. acnes; 5% DM, Disc No. 5, anaerobic
  Diameter of clear zone: 34 mm
[1]
  well tolerated oral dosage: up to 120 milligrams (mg) per day
Propionibacterium acnes; DM 125 ppm (0.0125%)
  Growth Inhibition: —
Propionibacterium acnes; DM 250 ppm (0.025%)
  Growth Inhibition: —
Propionibacterium acnes; DM 500 ppm (0.05%)
  Growth Inhibition: +
Propionibacterium acnes; DM 1000 ppm (0.1%)
  Growth Inhibition: +
Propionibacterium acnes; DM 1250 ppm (0.125%)
  Growth Inhibition: +
Propionibacterium acnes; DM 2500 ppm (0.25%)
  Growth Inhibition: +
Propionibacterium acnes; DM 5000 ppm (0.5%)
  Growth Inhibition: +
MCP-1
  concentration of MCP-1 in the medium of THP-1 cells after LPS stimulation: significantly reduced
IL-6
  concentration of IL-6 in the medium of THP-1 cells after LPS stimulation: significantly reduced

## Oc1cc(Cl)ccc1Oc1ccc(Cl)cc1Cl [Triclosan]
P. acnes; 0.1% Triclosan, Disc No. 8, anaerobic
  Diameter of clear zone: 30 mm

## C=CCN1CC[C@]23c4c5ccc(O)c4O[C@H]2C(=O)CC[C@@]3(O)[C@H]1C5 [naloxone, 17-allyl-4,5α-epoxy-3,14-dihydroxymorphinan-6-one]
TNF-α
  concentration of TNF-α in the medium of THP-1 cells after LPS stimulation: significantly reduced
MCP-1
  concentration of MCP-1 in the medium of THP-1 cells after LPS stimulation: significantly reduced
IL-6
  concentration of IL-6 in the medium of THP-1 cells after LPS stimulation: significantly reduced
